Results reported in patent US6897319B2, “Useful aroyl pyrrole heteroaryl methanones and methanols” (Ortho-McNeil Pharmaceutical, Inc., priority 2001, dated 2005).

What was measured:
[1] = system: voltage-gated sodium channels; test: [14C]guanidinium flux assay in SK-N-SH cells (veratridine stimulus); type: cell-based; conditions: 10 μM compound, 100 μM veratridine
Method: Screening Assay for Voltage-Gated Sodium Channel Antagonists [^14C] Guanidinium Flux Assay
SK-N-SH neuroblastoma cells were maintained in a propagation medium containing modified Eagle's medium and 10% (v/v) fetal bovine serum and were incubated at 37° C. in a 5% CO2 atmosphere. Only cells with fewer than 20 passages were used in each assay. All drugs were prepared in DMSO, and the final concentration of solvent was less than 0.1% (v/v). Veratridine, a toxin that selectively promotes persistent activation of voltage-gated sodium channels, served as the stimulus.
SK-N-SH cells were plated at 1×10^5 cells/well in 96-well Cytostar-T microscintillating plates in propagation medium and experiments were performed 6-7 days after plating. Prior to assay, the SK-N-SH cells were washed twice with assay buffer containing 50 mM HEPES (pH 7.45), 5.4 mM potassium chloride, 0.8 mM magnesium chloride, 130 mM choline chloride, 5.5 mM glucose and 0.1 mg/mL bovine serum albumin. Next, the plates were allowed to equilibrate for 10 min at 37° C. in assay buffer. After this incubation period, the cells were stimulated with 100 μM veratridine in the presence or absence of investigational compounds prepared in a 96-well plate (prepared at a final concentration of 10 μM in DMSO). The 96-well dosing plate was prepared by mixing 25 μL of a drug/assay buffer solution per well with 25 μL of 0.7 μCi/mL [^14C]guanidine hydrochloride in assay buffer. 50 μL aliquots from the dosing plate were then added to the cells. One sample containing 100 μM veratridine and 10 μM tetrodotoxin accounted for nonspecific activity. The plates were incubated for 1 hr at room temperature and the radioactivity was counted in a 1450 Microbeta scintillation counter.

[2] = system: maximal electroshock extensor seizure; test: Mouse maximal electroshock test (MES) anticonvulsant model; type: in vivo; conditions: po, orally administered, read-out: MES Response ED50
Method: Procedure for Testing in Mouse Anticonvulsant Model
The activity of the present compounds as anticonvulsant agents was determined using a standard mouse “maximal electroshock test” (MES). In this test, activity was indicated by a block of the […] extensor seizure, as described by Swinyard, et al. (J. Pharmacol. Exptl. Therap., 1952, 106, 319). A more recent description of current anticonvulsant drug screening is given in Swinyard, et al., in Epilepsia, 1978, 19, 409.
The anticonvulsant activity of the instant compounds is shown in Table 5 and was evaluated according to the Swinyard (1952) method. The abbreviations used in the table have the following meanings: mpk refers to the dose orally administered in “mg per Kg;” and, ED50 refers to the “50% Effective Dose” orally administered in mpk. The values marked by an * represent the number of mice protected/number of mice tested; therefore, a value of 3/3 represents that the number of mice protected matched the number of mice tested at the indicated dose.

[3] = system: carrageenan-induced thermal hyperalgesia; test: Carrageenan Paw Hyperalgesia Test; type: in vivo; conditions: mouse, orally 30 mg per Kg, 90 minutes following oral dosing
Source text: Procedure for Testing Hyperalgesic Effect
The procedure used to detect the antihyperalgesic activity of a compound of the present invention for which there is a good correlation with human efficacy is the Carrageenan Paw Hyperalgesia Test (as described in Sammons, et al., Brain Research, 2000, 876, 48-54).
Male, CD-1 mice (Charles River Laboratories) weighing 22-30 g each at the time of testing are housed in a climate-controlled, virus free environment for at least 7 days prior to testing. Food and water are available ad libitum up to test time.
Test mice are […] by injecting an irritant (e.g., 0.02 mL of a 1.0% carrageenan solution in 0.9% saline) subcutaneously into the subplantar tissue of one of the hind paws to stimulate an acute inflammatory reaction. The response of the animal following carrageenan injection is subsequently evaluated at a fixed later time and verified to be hyperalgesic relative to a baseline response obtained immediately prior to carrageenan injection.
The mice were dosed orally with either Compound 1 dissolved in a suspension of 20% hydroxypropyl beta cyclodextrin in distilled water or with vehicle alone at a fixed time following carrageenan injection. […] Response latencies were subsequently evaluated at fixed times following oral dosing to assess reversal of hyperalgesia caused by treatment with Compound 1 as compared to vehicle treatment. […]

[4] = system: carrageenan-induced paw swelling; test: Carrageenan Paw Edema Model; type: in vivo; conditions: rat, 100 mg/kg p.o., 2 hours post carrageenan administration
Source text: Procedure for Testing Antiinflammatory Response
The procedure used to detect the antiinflammatory activity of a compound of the present invention for which there is a good correlation with human efficacy is the Carrageenan Paw Edema Model (as described in Levy, L., Carrageenan Paw Edema in the Mouse, Life Sci., 1969, 8, 11, 601-6).
Male, Sprague-Dawley rats (Charles River Laboratories) 175-200 g are housed in a climate-controlled, virus free environment for at least 5 days prior to testing.
Carrageenan is prepared in saline (0.5% carrageenan solution in 0.9% saline) and injected in a 0.1 mL volume into the footpad of the rat. Test compound is administered orally by gavage 30-60 minutes prior to footpad challenge. Paws are dipped into a mercury plethysmograph edema computer (Buxco Electronics) and the foot displacement is recorded at 0 time and at various times after challenge with carrageenan. Rats treated with test compound are compared to vehicle controls for any inhibition of carrageenan induced paw swelling.
The % Inhibition (% I) by a compound tested was calculated according to the formula: %I=100−[100×(TCPV/VCPV)]; wherein TCPV is defined as the mean Change in Paw Volume in the Treated group and VCPV is the mean Change in Paw Volume in the Vehicle group.

Compound: Cn1cc(C(=O)c2ccncc2)cc1C(=O)c1ccc(Cl)cc1 [Cpd 1, [5-(4-Chlorobenzoyl)-1-methyl-1H-pyrrol-3-yl]pyridin-4-ylmethanone]
- % GFI at 10 μM (% guanidinium flux inhibition) [1]: 23%
- ED50 [2]: 157 mg/kg
- % Recovery (reversal of hyperalgesia) [3]: 84%
- % inhibition of carrageenan-induced paw swelling [4]: 35%
